In patent US11154519B2, “Inhibitors and their uses” (MEDICAL RESEARCH COUNCIL, priority 2015, dated 2021):

Assays:
eIF2α phosphorylation [1] = experiment: Assay 2: eIF2α phosphorylation in cells in the absence of stress; format: cell-based; conditions: human cells
Procedure: (§1) HeLa cells were cultured in Dulbecco's Modified Eagle's Media (DMEM) supplemented with penicillin, streptomycin, containing 5% and 10% fetal bovine serum (FBS), respectively. MEF cells were cultured in DMEM supplemented with penicillin, streptomycin, glutamine, 55 μM β-mercaptoethanol, 1× non-essential amino acids (Sigma-Adrich) and 10% FBS. Where indicated, cells were treated with 2.5 μg/ml tunicamycin, 1 mM DTT (Sigma-Adrich) and or the indicated compounds at the indicated concentrations.
(§2) For immunoblots, HeLa cells (80,000 cells/ml) were plated in 12-well plates 24 hours before each experiment. Immediately after the indicated treatments, cells were lysed in 75 μl Laemmli Buffer, boiled at 95° C. for 5 minutes and sonicated. Proteins were separated and analysed as described (Tsaytler et al., Science, 332, 91-94, 2011) with the following antibodies: phospho-elf2α [pS52] and PPP1R15A/GADD34 (10449-1-AP; ProteinTech Group, 1/1000 dilution) and ATF4 (Sc-200 Santa Cruz).
Human cells were treated with a PPP1R15B inhibitor and eIF2α phosphorylation was monitored over time. […] This was manifested between 1 and 7.5 hours after addition of the compound of Example 1. […] Indeed, the inventors noticed that PPP1R15A was induced at the late time points following addition of the compound of Example 1 (see Assay 3). […] Furthermore, this establishes that the compound of Example 1 spares PPP1R15A. […]

eIF2α phosphorylation [2] = experiment: Assay 5: eIF2α phosphorylation during stress-recovery (DTT wash out); format: cell-based; conditions: 30 minute 1 mM DTT and wash out, before R15A is expressed
Procedure: as §1, §2
The inventors reasoned that a PPP1R15B inhibitor should prolong eIF2α phosphorylation following stress. […] The inventors took advantage of the fast kinetic and reversibility of stress induction by DTT (Bertolotti et al., Nat. Cell. Biol., 2, 326-332, 2000; Jousse et al., 2003) and monitored eIF2α phosphorylation in cells following a 30 minute treatment with 1 mM DTT and a wash out. […]

[3] = Tissue distribution in mice after oral gavage; format: in vivo; conditions: plasma, brain, spinal cord, pancreas, liver
mice = experiment: Side effects of Guanabenz: activity of mice after dosing; format: in vivo; conditions: 10 mg/kg oral gavage
Procedure: To assess whether of a compound of Example 1 had the side effects of Guanabenz, mice (n>3) were gavaged orally with 10 mg/kg of compound or Guanabenz. Their activity was monitored 30 minutes following dosing.
In humans, the adrenergic agonist activity of Guanabenz has side effects including drowsiness and coma at high doses (A. H. Hall, Ann Intern Med 102; 787-788; 1985). Due to of these side effects, Guanabenz is no longer used in human. It is anticipated that Guanabenz derivatives have the side effects of Guanabenz, associated with alpha-2 adrenergic activity.

HD-N171-82Q mice = experiment: Huntington's disease mouse model, motor performance (rotarod); format: in vivo; conditions: 2 mg/kg oral daily, 4 weeks
Procedure: To assess the efficacy of a compound of Example 1 in ameliorating a disease phenotype, 28-day old transgenic mice or littermate control were orally administered daily with a compound of Example 1 (2 mg/kg) or vehicle for a duration of 4 weeks. Disease progression was evaluated by weighting the mice during the treatment and by assessing their motor performances after 4 weeks of treatment.
Eight weeks old HD-N171-82Q mice and their wild-type littermates were first habituated for 1 min on a static rotor and 1 min at constant speed (4 rpm). Habituation was repeated. The test session consisted of four trials with 15 min intervals in between. For each trial 5 mice were placed on an accelerating rotor (4 to 40 rpm) and the latency to fall was recorded, with a maximum limit for individual animal set at 300 s.
Increasing folding by inhibition of PPP1R15B has the potential to benefit a very broad range of human pathologies. To test this, the inventors looked at Huntington's disease (HD), a proteostasis disease caused by accumulation of a misfolded protein, mutant Huntingtin. […] As HD has no cure to date, the inventors tested whether HD could be prevented by PPP1R15B inhibition.

## [H]/N=C(\N)NN=Cc1cccc(Cl)c1Cl [Compound 16, (E)-2-(2,3-dichlorobenzylidene)hydrazine-1-carboximidamide]
eIF2α phosphorylation [1]; 10 hours after addition
  eIF2α phosphorylation: returned to basal levels
eIF2α phosphorylation [1]; between 1 and 7.5 hours after addition
  eIF2α phosphorylation: induced eIF2α phosphorylation
eIF2α phosphorylation [2]
  eIF2α phosphorylation following stress: prolongs eIF2⊐ phosphorylation following stress
[3]
  tissue distribution: extensive tissue distribution
mice
  activity of mice 30 minutes following dosing: as active as untreated mice
HD-N171-82Q mice
  motor performances: prevented the motor performances impairment
